According to publication PMC10940605, “Design, synthesis and in vitro anticancer activity of some new lomefloxacin derivatives” (Scientific Reports, 2024):

Tested on: leukemia SR cells
Test: Cell cycle analysis, PI flow cytometry
Assay type: cell-based, human
Set-up: increase of cells at pre-G1 phase vs control: concentration or dose not given beside the values
Procedure: The cells were washed twice using Ice-cold phosphate buffer saline (PBS). • Centrifugation was used to collect the cells, then the cells were fixed in 70% (v/v) ethanol, washed with PBS and re-suspended with 0.10 mg/mL RNase. • After that, cells were stained with […] propidium iodide (PI) and evaluated by flow cytometry using FACSCalibur (Becton Dickinson).

## CCn1cc(C(=O)NN=Cc2cccs2)c(=O)c2cc(F)c(N3CCNC(C)C3)c(F)c21 (centres unmarked) [Compound 3e, 1-Ethyl-6,8-difluoro-7-(3-methylpiperazin-1-yl)-4-oxo-N'-(thiophen-2-ylmethylene)-1,4-dihydroquinoline-3-carbohydrazide]
  increase of cells at pre-G1 phase vs control: 10.19 folds
3e at 1.90 µM, 24 h
  %G0-G1: 24.66%
  %G2-M: 49.26%
  %Pre-G1: 26.19%
  %S: 26.08%
